In patent US20110224208A1, “NOVEL INHIBITORS OF FLAVIVIRUS REPLICATION” (KATHOLIEKE UNIVERSITEIT LEUVEN, K.U. LEUVEN R&D, priority 2008, published 2011):
Values after ≈ are worked out from the molar mass of the structure shown.

How the values were obtained:
[1] = tested on: HCV replicon I389luc-ubi-neo/NS3-3'/5.1; assay: Anti-HCV replicon assay (luciferase activity) in Huh-5-2 cells; assay type: cell-based, Hepatitis C virus; details: concentration required to inhibit luciferase activity in the replicon system by 50%
Procedure, shortened: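 Huh-5-2 cells carrying the luciferase HCV replicon, seeded 24 h, then exposed to serial compound dilutions without G418 for 72 h at 37° C, 5% CO2. Replication read as luciferase luminescence, expressed as percentage of untreated cultures; culture density measured in parallel by MTS.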

[2] = Proliferation of exponentially growing Huh-5-2 cells (MTS method); details: human, CC50, concentration required to inhibit the proliferation of exponentially growing Huh-5-2 cells by 50%; Table 2
Experimental: Cells were seeded at a density of 7000 cells per well in 96 well View Plate™ (Packard) in medium containing the same components as described above, except for G418. Cells were allowed to adhere and proliferate for 24 hr. At that time, culture medium was removed and serial dilutions of the test compounds were added in culture medium lacking G418. Interferon alfa 2a (500 IU) was included as a positive control. Plates were further incubated at 37° C. and 5% CO2 for 72 hours. Replication of the HCV replicon in Huh-5 cells results in luciferase activity in the cells. Luciferase activity is measured by adding 50 μl of 1×Glo-lysis buffer (Promega) for 15 minutes followed by 50 ul of the Steady-Glo Luciferase assay reagent (Promega). Luciferase activity is measured with a luminometer and the signal in each individual well is expressed as a percentage of the untreated cultures. […] Instead the density of the culture is measured by means of the MTS method (Promega).

[3] = Hepatitis C virus, Huh-5-2, 72 h

| Compound | IC50 [1, 3] | CC50 at 72 h [2] | IC50 ([1]; 72 hours) |
| --- | --- | --- | --- |
| COCCN1C(=O)c2ccccc2C(C(=O)Nc2ccc(-c3nncn3C)cc2)C1c1cccs1 (stereo not shown) [C214, 2-(2-methoxyethyl)-N-(4-(4-methyl-4H-1,2,4-triazol-3-yl)phenyl)-1-oxo-3-(thiophen-2-yl)-1,2,3,4-tetrahydroisoquinoline-4-carboxamide] | 5.29 µg/mL (≈ 10.8 µM) | 85.3 µg/mL (≈ 175 µM) |  |
| COCCN1C(=O)c2ccccc2C(C(=O)Nc2cccc(OC)c2)C1C=C(C)C (stereo not shown) [C120, 2-(2-methoxyethyl)-N-(3-methoxyphenyl)-3-(2-methylprop-1-enyl)-1-oxo-1,2,3,4-tetrahydroisoquinoline-4-carboxamide] | 3.28 µg/mL (≈ 8.03 µM) | 95.4 µg/mL (≈ 233 µM) |  |
| COCCN1C(=O)c2ccccc2C(C(=O)Nc2cccc(OC)c2)C1C1CCCC1 (stereo not shown) [C118, 3-cyclopentyl-2-(2-methoxyethyl)-N-(3-methoxyphenyl)-1-oxo-1,2,3,4-tetrahydroisoquinoline-4-carboxamide] | 8.32 µg/mL (≈ 19.7 µM) | 98.2 µg/mL (≈ 233 µM) |  |
| COCCN1C(=O)c2ccccc2C(C(=O)Nc2ccc3ncoc3c2)C1c1cccs1 (stereo not shown) [C219, N-(benzo[d]oxazol-6-yl)-2-(2-methoxyethyl)-1-oxo-3-(thiophen-2-yl)-1,2,3,4-tetrahydroisoquinoline-4-carboxamide] | 1.14 µg/mL (≈ 2.55 µM) | 91.1 µg/mL (≈ 204 µM) |  |
| COCCN1C(=O)c2ccccc2C(C(=O)Nc2cccc(OC)c2)C1c1ccc(Cl)s1 (stereo not shown) [C135, 3-(5-chlorothiophen-2-yl)-2-(2-methoxyethyl)-N-(3-methoxyphenyl)-1-oxo-1,2,3,4-tetrahydroisoquinoline-4-carboxamide] | 0.52 µg/mL (≈ 1.1 µM) | 56.7 µg/mL (≈ 120 µM) |  |
| COCCN1C(=O)c2ccccc2C(C(=O)Nc2cccc(OC)c2)C1c1csc(C)n1 (stereo not shown) [C98, 2-(2-methoxyethyl)-N-(3-methoxyphenyl)-3-(2-methylthiazol-4-yl)-1-oxo-1,2,3,4-tetrahydroisoquinoline-4-carboxamide] | 50.3 µg/mL (≈ 111 µM) | 80.9 µg/mL (≈ 179 µM) |  |
| COCCN1C(=O)c2ccccc2C(C(=O)Nc2ccn(C)n2)C1c1cccs1 (stereo not shown) [C180, 2-(2-methoxyethyl)-N-(1-methyl-1H-pyrazol-3-yl)-1-oxo-3-(thiophen-2-yl)-1,2,3,4-tetrahydroisoquinoline-4-carboxamide] | 34.8 µg/mL (≈ 84.8 µM) | 80.8 µg/mL (≈ 197 µM) |  |
| COCCN1C(=O)c2ccccc2C(C(=O)Nc2ccc(C#N)c(C(F)(F)F)c2)C1c1cccs1 (stereo not shown) [C221, N-(4-cyano-3-(trifluoromethyl)phenyl)-2-(2-methoxyethyl)-1-oxo-3-(thiophen-2-yl)-1,2,3,4-tetrahydroisoquinoline-4-carboxamide] | 0.36 µg/mL (≈ 0.721 µM) | 3.52 µg/mL (≈ 7.05 µM) |  |
| COCCN1C(=O)c2ccccc2C(C(=O)Nc2cccc(Cn3ccnc3)c2)C1c1cccs1 (stereo not shown) [C212, N-(3-((1H-imidazol-1-yl)methyl)phenyl)-2-(2-methoxyethyl)-1-oxo-3-(thiophen-2-yl)-1,2,3,4-tetrahydroisoquinoline-4-carboxamide] | 0.16 µg/mL (≈ 0.329 µM) | 52.6 µg/mL (≈ 108 µM) |  |
| COCCN1C(=O)c2ccccc2C(C(=O)Nc2ccc(-c3cccnc3)cc2)C1c1cccs1 (stereo not shown) [C173, 2-(2-methoxyethyl)-1-oxo-N-(4-(pyridin-3-yl)phenyl)-3-(thiophen-2-yl)-1,2,3,4-tetrahydroisoquinoline-4-carboxamide] | 0.09 µg/mL (≈ 0.186 µM) | 9.59 µg/mL (≈ 19.8 µM) |  |
| COc1cccc(NC(=O)C2c3ccccc3C(=O)N(CCCN3CCOCC3)C2c2cccs2)c1 (stereo not shown) [C64, N-(3-methoxyphenyl)-2-(3-morpholinopropyl)-1-oxo-3-(thiophen-2-yl)-1,2,3,4-tetrahydroisoquinoline-4-carboxamide] | 23.9 µg/mL (≈ 47.2 µM) | 47.8 µg/mL (≈ 94.5 µM) |  |
| COCCN1C(=O)c2ccccc2C(C(=O)Nc2ccc(-n3cncn3)cc2)C1c1cccs1 (stereo not shown) [C167, N-(4-(1H-1,2,4-triazol-1-yl)phenyl)-2-(2-methoxyethyl)-1-oxo-3-(thiophen-2-yl)-1,2,3,4-tetrahydroisoquinoline-4-carboxamide] | 0.12 µg/mL (≈ 0.253 µM) | 60 µg/mL (≈ 127 µM) |  |
| COCCN1C(=O)c2ccccc2C(C(=O)Nc2cccc(OC)c2)C1c1ccsc1 (stereo not shown) [C11, 2-(2-Methoxyethyl)-N-(3-methoxyphenyl)-1-oxo-3-(thiophen-3-yl)-1,2,3,4-tetrahydroisoquinoline-4-carboxamide] | 1.2 µg/mL (≈ 2.75 µM) | 37.9 µg/mL (≈ 86.8 µM) |  |
| COCCN1C(=O)c2ccccc2C(C(=O)Nc2ccc(CN3CCCCC3)cc2)C1c1cccs1 (stereo not shown) [C216, 2-(2-methoxyethyl)-1-oxo-N-(4-(piperidin-1-ylmethyl)phenyl)-3-(thiophen-2-yl)-1,2,3,4-tetrahydroisoquinoline-4-carboxamide] | 2.57 µg/mL (≈ 5.1 µM) | 10.9 µg/mL (≈ 21.7 µM) |  |
| C#CC1C(C(=O)Nc2cccc(OC)c2)c2ccccc2C(=O)N1CCOC (stereo not shown) [C83, 3-ethynyl-2-(2-methoxyethyl)-N-(3-methoxyphenyl)-1-oxo-1,2,3,4-tetrahydroisoquinoline-4-carboxamide] | 0.4 µg/mL (≈ 1.06 µM) | 70 µg/mL (≈ 185 µM) |  |
| COCCN1C(=O)c2cccc(OC)c2C(C(=O)Nc2cccc(OC)c2)C1c1cccs1 (stereo not shown) [C148, 5-methoxy-2-(2-methoxyethyl)-N-(3-methoxyphenyl)-1-oxo-3-(thiophen-2-yl)-1,2,3,4-tetrahydroisoquinoline-4-carboxamide] | 24.6 µg/mL (≈ 52.6 µM) | 52.1 µg/mL (≈ 112 µM) |  |
| COc1cccc(NC(=O)C2c3ccccc3C(=O)N(CCOC(C)C)C2c2cccs2)c1 (stereo not shown) [C66, 2-(2-Isopropoxyethyl)-N-(3-methoxyphenyl)-1-oxo-3-(thiophen-2-yl)-1,2,3,4-tetrahydroisoquinoline-4-carboxamide] | 1.99 µg/mL (≈ 4.28 µM) | 39.2 µg/mL (≈ 84.4 µM) |  |
| COCCN1C(=O)c2ccccc2C(C(=O)Nc2cccc(OC)c2)C1c1cccc(F)c1 (stereo not shown) [C8, 3-(3-Fluorophenyl)-2-(2-methoxyethyl)-N-(3-methoxyphenyl)-1-oxo-1,2,3,4-tetrahydroisoquinoline-4-carboxamide] | 21.8 µg/mL (≈ 48.6 µM) | 54.5 µg/mL (≈ 122 µM) |  |
| COCCN1C(=O)c2ccccc2C(C(=O)Nc2cccc(OC)c2)C1CSC (stereo not shown) [C82, 2-(2-methoxyethyl)-N-(3-methoxyphenyl)-3-(methylthiomethyl)-1-oxo-1,2,3,4-tetrahydroisoquinoline-4-carboxamide] | 12 µg/mL (≈ 28.9 µM) | 72 µg/mL (≈ 174 µM) |  |
| COCCN1C(=O)c2ccccc2C(C(=O)Nc2cc(C)on2)C1c1cccs1 (stereo not shown) [C126, 2-(2-methoxyethyl)-N-(5-methylisoxazol-3-yl)-1-oxo-3-(thiophen-2-yl)-1,2,3,4-tetrahydroisoquinoline-4-carboxamide] | 0.9 µg/mL (≈ 2.19 µM) | 58.1 µg/mL (≈ 141 µM) |  |
| COCCN1C(=O)c2ccccc2C(C(=O)Nc2ccc(F)cc2)C1c1cccs1 (stereo not shown) [C95, N-(4-fluorophenyl)-2-(2-methoxyethyl)-1-oxo-3-(thiophen-2-yl)-1,2,3,4-tetrahydroisoquinoline-4-carboxamide] | 2.21 µg/mL (≈ 5.21 µM) | 76.3 µg/mL (≈ 180 µM) |  |
| COCCN1C(=O)c2ccccc2C(C(=O)Nc2ccc(Cn3cccn3)cc2)C1c1cccs1 (stereo not shown) [C174, N-(4-((1H-pyrazol-1-yl)methyl)phenyl)-2-(2-methoxyethyl)-1-oxo-3-(thiophen-2-yl)-1,2,3,4-tetrahydroisoquinoline-4-carboxamide] | 0.15 µg/mL (≈ 0.308 µM) | 43 µg/mL (≈ 88.3 µM) |  |
| COc1cccc(NC(=O)C2c3ccccc3C(=O)N(CC(F)(F)F)C2c2cccs2)c1 (stereo not shown) [C62, N-(3-methoxyphenyl)-1-oxo-3-(thiophen-2-yl)-2-(2,2,2-trifluoroethyl)-1,2,3,4-tetrahydroisoquinoline-4-carboxamide] | 8.81 µg/mL (≈ 19.1 µM) | 16.4 µg/mL (≈ 35.5 µM) |  |
| COCCN1C(=O)c2ccccc2C(C(=O)Nc2cccc(N3CCCC3)c2)C1c1cccs1 (stereo not shown) [C122, 2-(2-methoxyethyl)-1-oxo-N-(3-(pyrrolidin-1-yl)phenyl)-3-(thiophen-2-yl)-1,2,3,4-tetrahydroisoquinoline-4-carboxamide] | 0.37 µg/mL (≈ 0.778 µM) | 81.3 µg/mL (≈ 171 µM) |  |
| COCCN1C(=O)c2ccccc2C(C(=O)Nc2ccc3scnc3c2)C1c1cccs1 (stereo not shown) [C81, N-(benzo[d]thiazol-5-yl)-2-(2-methoxyethyl)-1-oxo-3-(thiophen-2-yl)-1,2,3,4-tetrahydroisoquinoline-4-carboxamide] |  | 65 µg/mL (≈ 140 µM) | 0.16 µg/mL (≈ 0.345 µM) |
| COCCN1C(=O)c2ccccc2C(C(=O)NCCc2cn(C)c3ccccc23)C1c1cccs1 (stereo not shown) [C44, 2-(2-Methoxyethyl)-N-(2-(1-methyl-1H-indol-3-yl)ethyl)-1-oxo-3-(thiophen-2-yl)-1,2,3,4-tetrahydroisoquinoline-4-carboxamide] | 4.17 µg/mL (≈ 8.55 µM) | 28.4 µg/mL (≈ 58.2 µM) |  |
| COCCN1C(=O)c2ccccc2C(C(=O)Nc2ccc3[nH]c(C)cc3c2)C1c1cccs1 (stereo not shown) [C131, 2-(2-methoxyethyl)-N-(2-methyl-1H-indol-5-yl)-1-oxo-3-(thiophen-2-yl)-1,2,3,4-tetrahydroisoquinoline-4-carboxamide] | 1.12 µg/mL (≈ 2.44 µM) | 69.7 µg/mL (≈ 152 µM) |  |
| COCCN1C(=O)c2ccccc2C(C(=O)Nc2ccc3c(c2)OCCO3)C1c1cccs1 (stereo not shown) [C117, N-(2,3-dihydrobenzo[b][1,4]dioxin-6-yl)-2-(2-methoxyethyl)-1-oxo-3-(thiophen-2-yl)-1,2,3,4-tetrahydroisoquinoline-4-carboxamide] | 0.36 µg/mL (≈ 0.775 µM) | 81.9 µg/mL (≈ 176 µM) |  |
| COc1cccc(NC(=O)C2c3ccccc3C(=O)N(Cc3ccccc3)C2c2cccs2)c1 (stereo not shown) [C37, 2-Benzyl-N-(3-methoxyphenyl)-1-oxo-3-(thiophen-2-yl)-1,2,3,4-tetrahydroisoquinoline-4-carboxamide] | 1.5 µg/mL (≈ 3.2 µM) | 92.7 µg/mL (≈ 198 µM) |  |
